Test results as given in ChEMBL document CHEMBL5604063, “ASAP - DENV-2 NS2B-NS3 protease fluorescence dose response” (2024).
pIC50: −log10 of the molar value. “And” between values parts separate entries of the source, which are not always exact repeats. Equal values may be shown once.

How the values were obtained:
Genome polyprotein [1] = molecular target: T1, Genome polyprotein (dengue virus type 2, UniProt P29990); format: functional, Thailand/16681/1984
Genome polyprotein [2] = molecular target: T1, Genome polyprotein; format: functional, Thailand/16681/1984; remark: listed apart in the source

T1 sequence (P29990 1346-1475 limits assumed): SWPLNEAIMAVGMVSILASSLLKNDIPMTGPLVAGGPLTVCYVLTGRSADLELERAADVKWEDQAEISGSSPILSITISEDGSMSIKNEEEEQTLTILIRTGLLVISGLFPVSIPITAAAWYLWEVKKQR
T1 sequence (P29990 1476-2093 limits assumed): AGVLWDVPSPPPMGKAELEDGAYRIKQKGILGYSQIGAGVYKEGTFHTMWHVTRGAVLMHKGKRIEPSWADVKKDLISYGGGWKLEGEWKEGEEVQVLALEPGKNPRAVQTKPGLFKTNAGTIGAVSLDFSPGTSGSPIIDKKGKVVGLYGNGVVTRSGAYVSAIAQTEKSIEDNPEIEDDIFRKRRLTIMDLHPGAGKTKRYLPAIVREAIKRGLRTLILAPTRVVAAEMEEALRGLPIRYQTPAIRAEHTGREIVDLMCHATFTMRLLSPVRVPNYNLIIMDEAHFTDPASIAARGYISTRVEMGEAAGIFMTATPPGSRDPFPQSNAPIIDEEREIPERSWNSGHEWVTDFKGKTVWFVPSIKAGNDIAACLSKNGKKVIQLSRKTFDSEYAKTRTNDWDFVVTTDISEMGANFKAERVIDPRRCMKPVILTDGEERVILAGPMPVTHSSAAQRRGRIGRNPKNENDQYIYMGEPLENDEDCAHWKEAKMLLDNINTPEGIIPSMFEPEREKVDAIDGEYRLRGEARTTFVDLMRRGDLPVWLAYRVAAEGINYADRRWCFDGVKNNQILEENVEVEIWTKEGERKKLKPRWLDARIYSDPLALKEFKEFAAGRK

SMILES | pIC50 (Genome polyprotein [1]) | pIC50 (Genome polyprotein [2])
CS(=O)(=O)c1cc(CN)cc([C@@H]2C[C@H]2c2cc(Cl)cc(NC(=O)OCc3ccccc3)c2)c1 | < 4.00 | < 4.00
CCc1cc(C(=O)Nc2cccc(-c3nnn[nH]3)c2)ccc1Cl | < 4.00 | 4.17
O=C(Nc1ccc(-n2nn[nH]c2=O)cc1)c1cc(Cl)cc(C2CC2)c1 | < 4.00 | 4.21
O=C(Nc1cc(Cl)cc([C@H](C#CCO)Nc2cccc(-c3nn[nH]n3)c2)c1)OCc1ccccc1 | 4.87 and 4.89 | 5.10 and 5.15
O=C(Nc1cc(Cl)cc(C(=O)NCC[C@H]2C[C@@H]2C(=O)O)c1)OCc1ccccc1 | < 4.00 | < 4.00
Cc1c(C(=O)Nc2cc(CCCN)ccc2F)cc(C2CC2)n1C | < 4.00 | < 4.00
Clc1cc(/C=C/c2cccc(-c3nn[nH]n3)c2)c2cn[nH]c2c1 | < 4.00 | < 4.00
N#C[C@H](Nc1cccc(-c2nn[nH]n2)c1)c1cc(Cl)cc(NC(=O)OCc2ccccc2)c1 | 4.98 and 4.86 and 5.01 | 5.06 and 5.18 and 4.94 and 5.08
O=C(Nc1ccc2c(c1)CNC2)c1cc(Cl)cc2[nH]ncc12 | 4.14 and 4.23 and 4.05 | < 4.00
CCCc1sc(C(=O)Nc2cccc(-c3nnn[nH]3)c2)cc1CC | 4.34 | 4.72 and 4.69
C=CC[C@H](Nc1cccc(-c2nn[nH]n2)c1)c1cc(Cl)cc2[nH]ncc12 | 4.04 | 4.27 and 4.35
Cc1c(C(=O)Nc2ccc([C@@H](C)N)cc2)cc(C2CC2)n1C | < 4.00 | < 4.00
CNC(=O)[C@H](Nc1cccc(-c2nn[nH]n2)c1)c1cc(Cl)cc(NC(=O)OCc2ccccc2)c1 | 4.31 | 4.55 and 4.68
O=C(O)CCCc1ccc(NC(=O)c2cc(Cl)cc(NC(=O)OCc3ccccc3)c2)cc1 | 4.36 | 4.56 and 4.67
O=C(Nc1cc(Cl)cc(C(=O)Nc2cncc(C(=O)O)c2)c1)OCc1ccccc1 | 4.15 | 4.49 and 4.56
NCCc1ccc([C@H]2C[C@@H]2c2cc(Cl)cc(NC(=O)OCc3ccccc3)c2)cc1 | 5.14 and 5.06 | 4.23 and 4.50
CNC(=O)[C@H](Nc1cccc(-c2nn[nH]n2)c1)c1cc(Cl)cc2[nH]ncc12 | < 4.00 | < 4.00
NCc1ccc2nc(-c3cc(Cl)cc(NC(=O)OCc4ccccc4)c3)c(CCCO)cc2c1 | 4.05 | < 4.00
Clc1cc(CCc2cccc(-c3nn[nH]n3)c2)c2cn[nH]c2c1 | < 4.00 | 4.00

SMILES | pIC50 (Genome polyprotein [1]) | pIC50 (Genome polyprotein [2])
O=C(Nc1cc(Cl)cc(-c2ccc3[nH]c(C(=O)O)cc3c2)c1)OCc1ccccc1 | 5.18 and 5.26 | 5.26 and 5.31
O=C(Nc1ccc(-c2nnn[nH]2)cc1)c1cc(Cl)cc(C2CC2)c1 | 4.16 | 4.43 and 4.44
O=C(O)Cn1ncc2cc(-c3cc(Cl)cc(NC(=O)OCc4ccccc4)c3)ccc21 | 4.68 | 4.97 and 4.96
CCNC(=O)Nc1cc(Cl)cc(C(=O)Nc2cc(C)cc(CN)c2)c1 | < 4.00 | < 4.00
O=C(Nc1cc(Cl)cc(S(=O)(=O)Nc2cccc(-c3nn[nH]n3)c2)c1)OCc1ccccc1 | 4.65 | 4.94 and 5.05
NCc1cc(C(=O)O)cc([C@@H]2C[C@H]2c2cc(Cl)cc(NC(=O)OCc3ccccc3)c2)c1 | < 4.00 | < 4.00
CCc1nc(C)c(C(=O)Nc2cccc(-c3nnn[nH]3)c2)s1 | < 4.00 | < 4.00
C[C@H](C(=O)O)c1cccc(NC(=O)c2cc(Cl)cc(NC(=O)OCc3ccccc3)c2)c1 | 4.23 | 4.61 and 4.57
C=CC[C@H](Nc1cc(Cl)cc(NC(=O)OCc2ccccc2)c1)c1cccc(-c2nn[nH]n2)c1 | 5.13 and 5.12 | 5.17 and 5.30 and 5.26 and 5.24 and 5.38
O=C(Nc1cc(Cl)cc([C@H]2C[C@@H]2c2cccc(C3CCNCC3)c2)c1)OCc1ccccc1 | 5.17 and 5.16 | 4.27 and 4.46
C=CC[C@H](Nc1cc(CN)ccn1)c1cc(Cl)cc(NC(=O)OCc2ccccc2)c1 | < 4.00 | < 4.00
CNC(=O)[C@H](Nc1cccc(C(=O)O)c1)c1cc(Cl)cc2[nH]ncc12 | < 4.00 | < 4.00
O=C(Nc1cc(Cl)cc([C@H](C#CCO)Nc2ccc(-c3nn[nH]n3)cc2)c1)OCc1ccccc1 | 4.91 | 5.09 and 5.17
C#C[C@H](Nc1cccc(-c2nn[nH]n2)c1)c1cc(Cl)cc(NC(=O)OCc2ccccc2)c1 | 4.97 | 5.03 and 5.08
Cc1c(C(=O)Nc2cc(F)cc(CN)c2)cc(C2CC2)n1C | < 4.00 | < 4.00
Cc1c(C(=O)Nc2cccc(CN)c2)cc(C2CCC2)n1C | < 4.00 | < 4.00
Cc1c(C(=O)Nc2ccc(CN)cc2)cc(C2CC2)n1C | < 4.00 | < 4.00
CN1C[C@H](c2cccc(CN)c2)[C@@H](c2cc(Cl)cc(NC(=O)OCc3ccccc3)c2)C1 | < 4.00 | < 4.00
O=C(Nc1cc(Cl)cc(C(=O)N[C@H]2CCCC[C@@H]2C(=O)O)c1)OCc1ccccc1 | < 4.00 | < 4.00

SMILES | pIC50 (Genome polyprotein [1]) | pIC50 (Genome polyprotein [2])
Cc1c(C(=O)Nc2cc(CN)ccc2F)cc(C2CC2)n1C | < 4.00 | < 4.00
CNC(=O)[C@H](Nc1cc(Cl)cc(NC(=O)OCc2ccccc2)c1)c1cccc(-c2nn[nH]n2)c1 | 4.34 and 4.36 | 4.65 and 4.74
NCc1cccc([C@H](CCCO)Nc2cc(Cl)cc(NC(=O)OCc3ccccc3)c2)c1 | 4.07 | < 4.00
O=C(Nc1cc(Cl)cc(C(=O)Nc2cccc(C3(C(=O)O)CCC3)c2)c1)OCc1ccccc1 | 4.61 | 4.90 and 4.89
O=C(Nc1cc(Cl)cc(C(=O)Nc2cc(-c3nnn[nH]3)ccc2F)c1)OCc1ccccc1 | 4.81 | 4.96 and 5.13
CS(=O)(=O)NC(=O)c1cc(CN)cc([C@@H]2C[C@H]2c2cc(Cl)cc(NC(=O)OCc3ccccc3)c2)c1 | < 4.00 | < 4.00
N#C[C@H](Nc1ccc(-c2nn[nH]n2)cc1)c1cc(Cl)cc(NC(=O)OCc2ccccc2)c1 | 4.97 | 5.14 and 4.89
NCc1ccc([C@H]2C[C@@H]2c2cc(Cl)cc(NC(=O)OCc3ccccc3)c2)cc1 | 5.01 and 4.96 | < 4.00
CCc1cc(C(=O)Nc2cccc(-c3nnn[nH]3)c2)sc1C | < 4.00 | < 4.00
O=C(O)CCCc1cccc(NC(=O)c2cc(Cl)cc(NC(=O)OCc3ccccc3)c2)c1 | 4.43 | 4.62 and 4.71
C=CC[C@H](Nc1cccc(-c2nn[nH]n2)c1)c1cc(Cl)cc(NC(=O)OCc2ccccc2)c1 | 5.16 | 5.21 and 5.30
O=C(Nc1cc(Cl)cc(C(=O)N[C@H](c2nn[nH]n2)C2CCNCC2)c1)OCc1ccccc1 | < 4.00 | < 4.00
O=C(O)CCc1cccc(NC(=O)c2cc(Cl)cc(NC(=O)OCc3ccccc3)c2)c1 | 4.32 | 4.78 and 4.71
COC(=O)c1cc(Cl)cc(S(=O)(=O)Nc2cccc(-c3nnn[nH]3)c2)c1F | < 4.00 | < 4.00
N#C[C@H](Nc1cc(Cl)cc(NC(=O)OCc2ccccc2)c1)c1ccc(-c2nn[nH]n2)cc1 | 5.02 | 5.16 and 5.25
CNC(=O)C[C@H](Nc1cccc(F)n1)c1cc(Cl)cc(Br)c1 | < 4.00 | < 4.00
COc1c(C(N)=O)cc(Cl)cc1S(=O)(=O)Nc1cccc(-c2nnn[nH]2)c1 | < 4.00 | < 4.00
O=C(Nc1cc(Cl)cc(C(=O)Nc2ccc([C@@H]3C[C@H]3C(=O)O)cc2)c1)OCc1ccccc1 | 4.71 | 5.02 and 5.03
CCc1cc(C(=O)Nc2cccc(-c3nnn[nH]3)c2)nn1-c1ccccc1 | < 4.00 | < 4.00
